# Assay results taken from patent publication US9320276B2, “N-hetarylmethyl pyrazolylcarboxamides” (BAYER INTELLECTUAL PROPERTY GMBH, priority 2010, dated 2016).
# Columns and labels:
# [1] = logP by HPLC on reversed-phase column (EEC Directive 79/831 Annex V.A8); format: physicochemical; conditions: 40° C., 0.1% aqueous formic acid and acetonitrile, linear gradient 10% to 90% acetonitrile
# Protocol: In table 1, the logP values were determined in accordance with EEC Directive 79/831 Annex V.A8 by HPLC (High Performance Liquid Chromatography) on a reversed-phase column (C 18), using the method described below: Temperature: 40° C.; Mobile phases: 0.1% aqueous formic acid and acetonitrile; linear gradient from 10% acetonitrile to 90% acetonitrile. Calibration was carried out using unbranched alkan-2-ones (comprising 3 to 16 carbon atoms) with known logP values (determination of the logP values by the retention times using linear interpolation between two successive alkanones). lambda-max-values were determined using UV-spectra from 200 nm to 400 nm and the peak values of the chromatographic signals.
# Alternaria solani = assay: in vivo preventive test on Alternaria solani (tomato); conditions: 500 ppm of active ingredient, evaluated 7 days after inoculation
# Protocol: Solvent: 49 parts by weight of N,N-dimethylformamide Emulsifier: 1 part by weight of Alkylarylpolyglycolether To produce a suitable preparation of active compound, 1 part by weight of active compound is mixed with the stated amounts of solvent and emulsifier, and the concentrate is diluted with water to the desired concentration. To test for preventive activity, young plants are sprayed with the preparation of active compound at the stated rate of application. One day after this treatment, the plants are inoculated with an aqueous spore suspension of Alternaria solani. The plants remain for one day in an incubation cabinet at approximately 22° C. and a relative atmospheric humidity of 100%. Then the plants are placed in an incubation cabinet at approximately 20° C. and a relative atmospheric humidity of 96%. The test is evaluated 7 days after the inoculation. 0% means an efficacy which corresponds to that of the untreated control while an efficacy of 100% means that no disease is observed.
# Pyrenophora teres = assay: in vivo preventive test on Pyrenophora teres (barley); conditions: 500 ppm of active ingredient, evaluated 7-9 days after inoculation
# Protocol: Solvent: 49 parts by weight of N,N-dimethylformamide Emulsifier: 1 part by weight of alkylaryl polyglycol ether To produce a suitable preparation of active compound, 1 part by weight of active compound is mixed with the stated amounts of solvent and emulsifier, and the concentrate is diluted with water to the desired concentration. To test for preventive activity, young plants are sprayed with the preparation of active compound at the stated rate of application. One day after this treatment, the plants are inoculated with an aqueous spore suspension of Pyrenophora teres. The plants remain for 48 hours in an incubation cabinet at 22° C. and a relative atmospheric humidity of 100%. Then the plants are placed in a greenhouse at a temperature of approximately 20° C. and a relative atmospheric humidity of approximately 80%. The test is evaluated 7-9 days after the inoculation. 0% means an efficacy which corresponds to that of the untreated control while an efficacy of 100% means that no disease is observed.
# Sphaerotheca fuliginea = assay: in vivo preventive test on Sphaerotheca fuliginea (cucumber); conditions: 500 ppm of active ingredient, evaluated 7 days after inoculation
# Protocol: Solvent: 49 parts by weight of N,N-dimethylformamide Emulsifier: 1 part by weight of Alkylarylpolyglycolether To produce a suitable preparation of active compound, 1 part by weight of active compound is mixed with the stated amounts of solvent and emulsifier, and the concentrate is diluted with water to the desired concentration. To test for preventive activity, young plants are sprayed with the preparation of active compound at the stated rate of application. One day after this treatment, the plants are inoculated with an aqueous spore suspension of Sphaerotheca fuliginea. Then the plants are placed in a greenhouse at approximately 23° C. and a relative atmospheric humidity of approximately 70%. The test is evaluated 7 days after the inoculation. 0% means an efficacy which corresponds to that of the untreated control, while an efficacy of 100% means that no disease is observed.
# [2] = HPLC on reversed-phase column (C 18)
# [3] = HPLC, reversed-phase column (C 18)
"logP [1, 2]","logP [1, 3]",Structure (SMILES),Efficacy (Alternaria solani) [%],Efficacy (Pyrenophora teres) [%],Efficacy (Sphaerotheca fuliginea) [%]
3.46,,Cn1nc(C(F)F)c(C(=O)N(Cc2cc(-c3ccc(Cl)cc3)no2)C2CC2)c1F [Example 153],90,100,
2.64,,Cn1nc(C(F)F)c(C(=O)N(Cc2c(Cl)cncc2Cl)C2CC2)c1Cl [Example 116],90,95,
3.39,,Cn1nc(C(F)F)c(C(=O)N(Cc2ccnc3cc(Cl)cc(Cl)c23)C2CC2)c1F [Example 163],,94,100
2.75,,CN(Cc1cc(CC(C)(C)C)no1)C(=O)c1c(C(F)F)nn(C)c1F [Example 105],95,100,
,2.76,Cn1nc(C(F)F)c(C(=O)N(Cc2c(C(F)(F)F)nn(C)c2OC(F)F)C2CC2)c1F [Example 170],95,100,88
3.02,,Cc1ccsc1CN(C(=O)c1c(C(F)F)nn(C)c1Cl)C1CC1 [Example 39],95,100,
3.76,,Cn1nc(C(F)F)c(C(=S)N(Cc2cc3ccccc3o2)C2CC2)c1F [Example 73],90,100,85
3.17,,Cn1nc(C(F)F)c(C(=O)N(Cc2cc(CC(C)(C)C)no2)C2CC2)c1F [Example 106],95,100,
2.32,,Cn1nc(C(F)F)c(C(=O)N(Cc2ccco2)C2CC2)c1F [Example 5],80,95,
,3.85,Cc1nc(-c2ccc(Cl)cc2)sc1CN(C(=O)c1c(C(F)F)nn(C)c1F)C1CC1 [Example 167],90,100,
3.11,,CC(c1cnc(Cl)c(Cl)c1)N(C(=O)c1c(C(F)F)nn(C)c1F)C1CC1 (stereo not shown) [Example 121],95,100,
2.75,,Cc1nc(C(F)(F)F)c(CN(C(=O)c2c(C(F)F)nn(C)c2F)C2CC2)s1 [Example 140],80,100,100
3.29,,Cc1nn(-c2ccccc2)nc1CN(C(=O)c1c(C(F)F)nn(C)c1F)C1CC1 [Example 131],90,95,97
2.44,,Cn1nc(C(F)F)c(C(=O)N(Cc2ccnc3ccc(Cl)cc23)C2CC2)c1F [Example 137],80,100,90
2.59,,Cn1nc(C(F)F)c(C(=O)N(Cc2cccs2)C2CC2)c1F [Example 32],70,100,95
3.53,,Cn1nc(C(F)F)c(C(=O)N(Cc2cc(-c3cc(F)c(F)c(F)c3)no2)C2CC2)c1F [Example 165],100,100,
2.73,,Cn1nc(C(F)F)c(C(=O)N(Cc2cnc(Cl)cc2Cl)C2CC2)c1F [Example 118],95,100,
2.68,,Cn1nc(C(F)F)c(C(=O)N(Cc2nc3ccccc3s2)C2CC2)c1F [Example 98],80,100,
3.29,,Cn1nc(C(F)F)c(C(=S)N(Cc2c(Cl)cncc2Cl)C2CC2)c1F [Example 117],100,100,95
3.41,,Cn1nc(C(F)F)c(C(=O)N(Cc2csc3ccccc23)C2CC2)c1Cl [Example 89],80,95,
2.52,,CN(Cc1cscc1Br)C(=O)c1c(C(F)F)nn(C)c1F [Example 133],70,90,
2.25,,Cn1nc(C(F)F)c(C(=O)N(Cc2ccc(Cl)nc2)C2CC2)c1F [Example 67],95,90,
2.92,,Cn1nc(C(F)F)c(C(=O)N(Cc2cc(-c3ccccc3)no2)C2CC2)c1F [Example 111],95,100,
3.31,,Cn1nc(C(F)F)c(C(=O)N(Cc2cccc3ccsc23)C2CC2)c1Cl [Example 94],95,95,

# Continued, compound first:
Structure (SMILES),"logP [1, 2]","logP [1, 3]",Efficacy (Alternaria solani) [%],Efficacy (Pyrenophora teres) [%],Efficacy (Sphaerotheca fuliginea) [%]
CN(Cc1cnn(-c2ccccc2)c1)C(=O)c1c(C(F)F)nn(C)c1F [Example 109],2.26,,95,100,
Cc1nc(-c2ccccc2)sc1CN(C)C(=O)c1c(C(F)F)nn(C)c1F [Example 149],2.77,,80,80,
Cn1nc(C(F)F)c(C(=O)NC2(c3cc4ccccc4o3)CCCC2)c1F [Example 75],3.52,,70,89,
CC(NC(=O)c1c(C(F)F)nn(C)c1Cl)c1cc2ccccc2s1 (racemic) [Example 81],3.13,,100,90,
Cn1nc(C(F)F)c(C(=S)N(Cc2cc(C(F)(F)F)nc3ccccc23)C2CC2)c1F [Example 161],4.26,,,100,100
CSc1ncc(C(C(C)C)N(C)C(=O)c2c(C(F)F)nn(C)c2F)c(C(F)(F)F)n1 (stereo not shown) [Example 157],3.46,,70,90,
CC(c1csc2ccccc12)N(C(=S)c1c(C(F)F)nn(C)c1F)C1CC1 (racemic) [Example 86],4.44,,70,100,
CN(Cc1nc(-c2ccccc2)no1)C(=O)c1c(C(F)F)nn(C)c1F [Example 114],2.58,,95,95,
CC(c1cc(Cl)sc1Cl)N(C(=O)c1c(C(F)F)nn(C)c1Cl)C1CC1 (stereo not shown) [Example 127],4.24,,95,95,
CC(c1cnc(Cl)c(Cl)c1)N(C(=O)c1c(C(F)F)nn(C)c1Cl)C1CC1 (stereo not shown) [Example 120],3.27,,90,100,
CN(Cc1sc2ccccc2c1Cl)C(=O)c1c(C(F)F)nn(C)c1F [Example 142],3.48,,80,100,
CC(NC(=O)c1c(C(F)F)nn(C)c1F)c1cc2ccccc2s1 (racemic) [Example 82],2.98,,100,90,
Cc1cc(C(C)N(C(=O)c2c(C(F)F)nn(C)c2Cl)C2CC2)c(C)s1 (stereo not shown) [Example 49],3.79,,80,95,
Cn1nc(C(F)F)c(C(=O)NC2CCCc3sccc32)c1Cl (stereo not shown) [Example 103],2.90,,94,,
CCN(Cc1nonc1C)C(=O)c1c(C(F)F)nn(C)c1F [Example 28],2.05,,90,,
CN(Cc1ccc2nsnc2c1)C(=O)c1c(C(F)F)nn(C)c1F [Example 100],2.17,,95,,
Cn1nc(C(F)F)c(C(=O)NCc2cc3ccccc3s2)c1Cl [Example 83],2.92,,94,,
Cn1nc(C(F)F)c(C(=O)NC2(c3cccs3)CCCC2)c1F [Example 34],2.96,,,,70
Cn1nc(C(F)F)c(C(=O)NCc2csc3ccccc23)c1F [Example 88],2.73,,78,,
